ChEMBL document CHEMBL1121676, “1980 Award in Medicinal Chemistry: Medicinal chemistry and dynamic structure-activity analysis in the discovery of drugs acting at histamine H2 receptors” (1981)
Activity calls are given as the source filed them. The rule behind the calls is not given here.

Assays:
Rattus norvegicus [1] = assay: Tested for inhibition of histamine-stimulated gastric acid secretion in the lumen-perfused anesthetized rat expressed as intravenous dose which reduces a near maximal secretion to 50%; detectable; format: functional, organism-based; details: Stomach
Rattus norvegicus [2] = assay: Tested for inhibition of histamine-stimulated gastric acid secretion in the lumen-perfused anesthetized rat expressed as intravenous dose which reduces a near maximal secretion to 50%; format: functional; details: Stomach, read-out: ID50 (the source's name)

SMILES	ID50 (Rattus norvegicus [1])	ED50 (Rattus norvegicus [2])
N=C(N)SCCCc1c[nH]cn1	inactive	–
N=C(N)SCCc1c[nH]cn1 [IMETIT]	–	200 µmol/kg
CC(=N)NCCCc1c[nH]cn1	–	100 µmol/kg
CC(=N)NCCc1c[nH]cn1	detectable	–
N=C(N)NCCCc1c[nH]cn1	–	100 µmol/kg
CSC(=N)NCCc1c[nH]cn1	detectable	–
N=C(N)NCCc1c[nH]cn1	–	> 500 µmol/kg
CSC(=N)NCCCc1c[nH]cn1	–	100 µmol/kg
